Source: patent US20230159527A1, “COMPOUNDS AS BCL-2 INHIBITORS” (Fochon Pharmaceuticals, Ltd., priority 2020, published 2023)
pIC50: −log10 of the molar value. Read-outs that look alike come from different tables or passages of the source.

Assays:
Format in all cases: cell-based
RS4;11-BCL-2 G101V cells = assay: Cell proliferation assay, engineered RS4;11 cells stably overexpressing BCL-2 G101V (MTS, 168 h); settings: read-out: RS4, 11 BCL2- G101V
Experimental: MTS testing kit was purchased from Promega (Madison, Wis., USA). The RPMI-1640, Fetal bovine serum and Penicillin-Streptomycin were purchased from BI (Biological Industries, Beit Haemek, Israel). Puromycin was purchased from Beyotime (shanghai, China). Dimethyl sulfoxide (DMSO) was purchased from Sigma (St. Louis, Mo., USA). RS4;1l-BCL-2 G101V and RS4;11-BCL-2 F104L cells were cultured in RPM11640 supplemented with 1 ug/mL puromycin, 100 U/mL Penicillin-Streptomycin and 10% FBS.
To investigate whether a compound is able to inhibit the activity of BCL-2 mutation in cells, a mechanism-based assay using engineered cell lines stably overexpressing BCL-2 mutation ([…] and […]) was developed. In this assay, the inhibition of BCL-2 mutation was reflected by the inhibition of cell proliferation of RS4;11-BCL-2 G101V and RS4;11-BCL-2 F104L cells. Cells were plated into 96-well plates at optimized cell density (RS4;11-BCL-2 G101V: 5000 cells/well; RS4;11-BCL-2 F104L: 5000 cells/well). Plates were incubated at 37° C., with 5% CO2 for 4 h. Compounds were serially diluted to the final-concentrations of 10000, 3333.3, 1111.1, 370.4, 123.5, 41.2, 13.7, 4.6 and 1.4 nM and added to the plates. Plates were incubated at 37° C., with 5% CO2 for 168 h. 20 μl MTS was added into each well and the plates were incubated at 37° C., with 5% CO2 exactly for 2 h. The absorbance was measured by a microplate reader at 490 nm. IC50 values were calculated using GraphPad Prism 5.0 software.

Toledo cells = assay: Cell proliferation assay, Toledo cells (MTS, 72 h); settings: Toledo cells, MTS, read-out: Toledo IC50
Outline: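 IC50 was derived from 490 nm absorbance after a 2 h MTS step. Before that, compounds at 1.5–10000 nM final (nine points) acted on Toledo cells for 72 h at 37 °C, 5% CO2. Cells were seeded at 30000/well in 10% FBS RPMI-1640 and rested 4 h before dosing.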

RS4;11-BCL-2 F104L cells = assay: Cell proliferation assay, engineered RS4;11 cells stably overexpressing BCL-2 F104L (MTS, 168 h); settings: Homo sapiens, read-out: RS4, 11 BCL2-F104L
Outline: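 Proliferation read-out: MTS for exactly 2 h, then absorbance at 490 nm, with IC50 derived from the fit. Before this, engineered RS4;11 lines (BCL-2 G101V, F104L; 5000 cells/well) were exposed 168 h at 37 °C to serially diluted compound, final 1.4–10000 nM.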

SMILES | pIC50 (RS4;11-BCL-2 G101V cells; Homo sapiens, RS4-11, 168 h) | pIC50 (Toledo cells; Homo sapiens) | pIC50 (RS4;11-BCL-2 F104L cells) | pIC50 (RS4;11-BCL-2 G101V cells) | pIC50 (Toledo cells)
CC(C)c1ccccc1[C@@H]1CCCN1C1CC2(CCN(c3ccc(C(=O)NS(=O)(=O)c4cc5c(c([N+](=O)[O-])c4)N[C@@H]([C@H]4CC[C@](C)(O)CC4)CO5)c(Oc4cc5cc[nH]c5nc4OC[C@@H]4COCCO4)c3)CC2)C1 (single isomer, unassigned) [Example D-251, 2-((6-(((S)-1,4-dioxan-2-yl)methoxy)-1H-pyrrolo[2,3-b]pyridin-5-yl)oxy)-N-(((S)-3-((1r,4S)-4-hydroxy-4-methylcyclohexyl)-5-nitro-3,4-dihydro-2H-benzo[b][1,4]oxazin-7-yl)sulfonyl)-4-(2-((R or S)-2-(2-isopropylphenyl)pyrrolidin-1-yl)-7-azaspiro[3.5]nonan-7-yl)benzamide] | 8.22 | 9.00 | 9.00 |  | 
CC(C)c1ccccc1[C@@H]1CCC[C@@H]1N1CC2(CCN(c3ccc(C(=O)NS(=O)(=O)c4cnc(NC[C@H]5CC[C@](C)(O)CC5)c([N+](=O)[O-])c4)c(Oc4cnc5[nH]cc(F)c5c4)c3)CC2)C1 (single isomer, unassigned) [Example A-149, 2-((3-fluoro-1H-pyrrolo[2,3-b]pyridin-5-yl)oxy)-N-((6-((((1r,4r)-4-hydroxy-4-methylcyclohexyl)methyl)amino)-5-nitropyridin-3-yl)sulfonyl)-4-(2-((1S,2S or 1R,2R)-2-(2-isopropylphenyl)cyclo-petyl)-2,7-diazaspiro[3.5]nonan-7-yl) benzamide] | 9.00 | 9.00 | 9.00 |  | 
CC(C)c1ccccc1[C@@H]1CCC[C@@H]1N1CC2(CCN(c3ccc(C(=O)NS(=O)(=O)c4cnc(NC[C@H]5CC[C@](C)(O)CC5)c([N+](=O)[O-])c4)c(Oc4cc5c(F)c[nH]c5nc4Cl)c3)CC2)C1 (single isomer, unassigned) [Example A-151, 2-((6-chloro-3-fluoro-1H-pyrrolo[2,3-b]pyridin-5-yl)oxy)-N-((6-((((1r,4r)-4-hydroxy-4-methylcyclohexyl)methyl)amino)-5-nitropyridin-3-yl)sulfonyl)-4-(2-((1S,2S or 1R,2R)-2-(2-isopropylphenyl)cyclo-pentyl)-2,7-diazaspiro[3.5]nonan-7-yl)_ benzamide] | 8.52 | 9.00 | 9.00 |  | 
CC(C)c1ccccc1[C@@H]1CCCN1C1CC2(CCN(c3ccc(C(=O)NS(=O)(=O)c4cc5c(c([N+](=O)[O-])c4)N[C@@H]([C@H]4CC[C@](C)(O)CC4)CO5)c(Oc4cc5cc[nH]c5nc4OC[C@H]4CCN4C)c3)CC2)C1 (single isomer, unassigned) [Example D-123, N-(((S)-3-((1r,4S)-4-hydroxy-4-methylcyclohexyl)-5-nitro-3,4-dihydro-2H-benzo[b][1,4]oxazin-7-yl)sulfonyl)-4-(2-((R or S)-2-(2-isopropylphenyl)pyrrolidin-1-yl)-7-azaspiro[3.5]nonan-7-yl)-2-((6-(((7)-1-methylazetidin-2-yl)methoxy)-1H-pyrrolo[2,3-b]pyridin-5-yl)oxy)benzamide] | 9.00 | 9.00 | 7.96 |  | 
CC(C)c1ccccc1[C@@H]1CCCN1C1CC2(CCN(c3ccc(C(=O)NS(=O)(=O)c4cc5c(c([N+](=O)[O-])c4)N[C@@H]([C@H]4CC[C@](C)(O)CC4)CO5)c(Oc4cc5cc[nH]c5nc4OC[C@H]4CCCN4C)c3)CC2)C1 (single isomer, unassigned) [Example D-130, N-(((S)-3-((1r,4S)-4-hydroxy-4-methylcyclohexyl)-5-nitro-3,4-dihydro-2H-benzo[b][1,4]oxazin-7-yl)sulfonyl)-4-(2-((R or S)-2-(2-isopropylphenyl)pyrrolidin-1-yl)-7-azaspiro[3.5]nonan-7-yl)-2-((6-(((R)-1-methylpyrrolidin-2-yl)methoxy)-1H-pyrrolo[2,3-b]pyridin-5-yl)oxy)benzamide] | 9.00 | 9.00 | 9.00 |  | 
CC(C)c1ccccc1[C@@H]1CCC[C@@H]1N1CC2(CCN(c3ccc(C(=O)NS(=O)(=O)c4ccc(NC[C@H]5CC[C@](C)(O)CC5)c([N+](=O)[O-])c4)c(Oc4cnc5[nH]cc(F)c5c4)c3)CC2)C1 (single isomer, unassigned) [Example D-34b, 2-((3-fluoro-1H-pyrrolo[2,3-b]pyridin-5-yl)oxy)-N-((4-((((1r,4r)-4-hydroxy-4-methylcyclohexyl)methyl)amino)-3-nitrophenyl)sulfonyl)-4-(2-((1S,2S or 1R,2R)-2-(2-isopropylphenyl)cyclopentyl)-2,7-diazaspiro[3.5]nonan-7-yl)benzamide] |  |  | 9.00 | 8.15 | 9.00
CC(C)c1ccccc1[C@@H]1CCC[C@@H]1N1CC2(CCN(c3ccc(C(=O)NS(=O)(=O)c4ccc(NC[C@H]5CC[C@](C)(O)CC5)c([N+](=O)[O-])c4)c(Oc4cc5c(F)c[nH]c5nc4F)c3)CC2)C1 (single isomer, unassigned) [Example D-90, 2-((3,6-difluoro-1H-pyrrolo[2,3-b]pyridin-5-yl)oxy)-N-((4-((1r,4r)-4-hydroxy-4-methylcyclohexyl)methyl)amino)-3-nitrophenyl) sulfonyl)-4-(2-((1S,2S or 1R,2R)-2-(2-isopropylphenyl) cyclopentyl)-2,7-diazaspiro[3.5] nonan-7-yl)benzamide] | 8.30 | 9.00 | 9.00 |  | 
COC(C)COc1nc2[nH]cc(F)c2cc1Oc1cc(N2CCC3(CC2)CN([C@H]2CCC[C@H]2c2ccccc2C(C)C)C3)ccc1C(=O)NS(=O)(=O)c1ccc(NC[C@H]2CC[C@](C)(O)CC2)c([N+](=O)[O-])c1 (single isomer, unassigned) [Example D-233, 2-((3-fluoro-6-(2-methoxypropoxy)-1H-pyrrolo[2,3-b]pyridin-5-yl)oxy)-N-((4-(((1r,4r)-4-hydroxy-4-methylcyclohexyl)methyl)amino)-3-nitrophenyl)sulfonyl)-4-(2-((1S,2S or 1R,2R)-2-(2-isopropylphenyl)cyclopentyl)-2,7-diazaspiro[3.5]nonan-7-yl)benzamide] | 7.85 |  | 8.40 |  | 
COC(C)COc1nc2[nH]cc(F)c2cc1Oc1cc(N2CCC3(CC2)CN([C@H]2CCC[C@H]2c2ccccc2C(C)C)C3)ccc1C(=O)NS(=O)(=O)c1cnc(NC[C@H]2CC[C@](C)(O)CC2)c([N+](=O)[O-])c1 (single isomer, unassigned) [Example A-155, 2-((3-fluoro-6-(2-methoxypropoxy)-1H-pyrrolo[2,3-b]pyridin-5-yl)oxy)-N-((6-((((1r,4r)-4-hydroxy-4-methyl-cyclohexyl)methyl)amino)-5-nitro-pyridin-3-yl)sulfonyl)-4-(2-((1S,2S or 1R,2R)-2-(2-isopropylphenyl)cyclo-pentyl)-2,7-diazaspiro[3.5]nonan-7-yl) benzamide] | 7.89 |  | 9.00 |  | 
COC(C)COc1nc2[nH]cc(F)c2cc1Oc1cc(N2CCC3(CC2)CC(N2CCC[C@H]2c2ccccc2C(C)C)C3)ccc1C(=O)NS(=O)(=O)c1cc2c(c([N+](=O)[O-])c1)N[C@@H]([C@H]1CC[C@](C)(O)CC1)CO2 (single isomer, unassigned) [Example D-243, 2-((3-fluoro-6-(2-methoxypropoxy)-1H-pyrrolo[2,3-b]pyridin-5-yl)oxy)-N-(((S)-3-((1r,4S)-4-hydroxy-4-methylcyclohexyl)-5-nitro-3,4-dihydro-2H-benzo[b][1,4]oxazin-7-yl)sulfonyl)-4-(2-((R or S)-2-(2-isopropylphenyl)pyrrolidin-1-yl)-7-azaspiro[3.5]nonan-7-yl)benzamide] | 8.00 |  | 9.00 |  | 
COC(C)COc1nc2[nH]cc(F)c2cc1Oc1cc(N2CCC3(CC2)CN([C@H]2CCC[C@H]2c2ccccc2C(C)C)C3)ccc1C(=O)NS(=O)(=O)c1cc2c(c([N+](=O)[O-])c1)N[C@@H]([C@H]1CC[C@](C)(O)CC1)CO2 (single isomer, unassigned) [Example D-241, 2-((3-fluoro-6-(2-methoxypropoxy)-1H-pyrrolo[2,3-b]pyridin-5-yl)oxy)-N-(((S)-3-((1r,4S)-4-hydroxy-4-methylcyclohexyl)-5-nitro-3,4-dihydro-2H-benzo[b][1,4]oxazin-7-yl)sulfonyl)-4-(2-((1S,2S or 1R,2R)-2-(2-isopropylphenyl)cyclopentyl)-2,7-diazaspiro[3.5]nonan-7-yl)benzamide] | 8.40 |  | 9.00 |  | 
